Key:
[1] = target: Proto-oncogene tyrosine-protein kinase Src (Homo sapiens, UniProt P12931); test: Inhibition of Src by virtual HTS assay
Insulin receptor = Insulin receptor (Homo sapiens, UniProt P06213); test: Inhibition of insulin receptor by virtual HTS assay
Aurora kinase A = target: T1, Aurora kinase A (Homo sapiens, UniProt O14965); test: Inhibition of Aurora A by virtual HTS assay
T1 sequence (O14965 whole entry): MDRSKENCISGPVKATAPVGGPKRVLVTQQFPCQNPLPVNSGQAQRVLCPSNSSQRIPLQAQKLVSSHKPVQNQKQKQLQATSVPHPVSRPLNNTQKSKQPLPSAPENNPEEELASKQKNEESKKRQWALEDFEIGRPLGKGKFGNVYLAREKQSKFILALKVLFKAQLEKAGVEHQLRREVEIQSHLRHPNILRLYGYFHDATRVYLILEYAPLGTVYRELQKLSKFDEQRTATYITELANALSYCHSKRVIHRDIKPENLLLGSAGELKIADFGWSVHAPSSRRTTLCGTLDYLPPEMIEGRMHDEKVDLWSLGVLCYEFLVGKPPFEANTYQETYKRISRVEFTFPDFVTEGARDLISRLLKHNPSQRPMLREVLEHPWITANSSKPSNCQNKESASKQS

Aurora kinase B = Aurora kinase B (Homo sapiens, UniProt Q96GD4); test: Inhibition of Aurora B by virtual HTS assay
[2] = target: Epidermal growth factor receptor (Homo sapiens, UniProt P00533); test: Inhibition of EGFR by virtual HTS assay
[3] = target: Insulin-like growth factor 1 receptor (Homo sapiens, UniProt P08069); test: Inhibition of IGF1R by virtual HTS assay
[4] = target: Vascular endothelial growth factor receptor 2 (Homo sapiens, UniProt P35968); test: Inhibition of VEGFR2 by virtual HTS assay
Angiopoietin-1 receptor = Angiopoietin-1 receptor (Homo sapiens, UniProt Q02763); test: Inhibition of TIE2 by virtual HTS assay
Ephrin type-B receptor 4 = target: T2, Ephrin type-B receptor 4 (Homo sapiens, UniProt P54760); test: Inhibition of EphB4 by virtual HTS assay
T2 sequence (P54760 whole entry): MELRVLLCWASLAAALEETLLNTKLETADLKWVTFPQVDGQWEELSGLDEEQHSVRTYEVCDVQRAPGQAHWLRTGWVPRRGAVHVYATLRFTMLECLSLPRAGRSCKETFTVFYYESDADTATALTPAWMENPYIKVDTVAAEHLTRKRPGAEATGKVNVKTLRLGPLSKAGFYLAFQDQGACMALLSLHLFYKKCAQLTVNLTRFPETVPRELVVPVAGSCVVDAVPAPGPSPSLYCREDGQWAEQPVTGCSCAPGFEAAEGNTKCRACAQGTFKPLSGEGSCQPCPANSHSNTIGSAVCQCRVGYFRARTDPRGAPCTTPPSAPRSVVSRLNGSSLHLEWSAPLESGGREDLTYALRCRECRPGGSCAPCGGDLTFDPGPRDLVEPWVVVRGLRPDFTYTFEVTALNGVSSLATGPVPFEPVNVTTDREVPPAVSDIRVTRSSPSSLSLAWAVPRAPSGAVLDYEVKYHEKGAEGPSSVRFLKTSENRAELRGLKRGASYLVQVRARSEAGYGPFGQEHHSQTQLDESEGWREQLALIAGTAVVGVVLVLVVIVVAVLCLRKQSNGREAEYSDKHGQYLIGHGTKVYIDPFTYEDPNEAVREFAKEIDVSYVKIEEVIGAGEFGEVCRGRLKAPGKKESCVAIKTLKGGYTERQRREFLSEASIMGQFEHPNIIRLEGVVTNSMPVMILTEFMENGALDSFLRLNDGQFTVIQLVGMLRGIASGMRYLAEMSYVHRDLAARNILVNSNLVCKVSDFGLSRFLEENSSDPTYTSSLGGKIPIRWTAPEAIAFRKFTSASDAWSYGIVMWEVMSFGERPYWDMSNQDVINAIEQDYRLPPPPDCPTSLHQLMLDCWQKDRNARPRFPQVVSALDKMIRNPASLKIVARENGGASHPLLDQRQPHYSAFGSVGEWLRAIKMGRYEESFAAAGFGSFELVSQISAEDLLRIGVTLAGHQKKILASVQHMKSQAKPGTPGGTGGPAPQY

[5] = target: Receptor tyrosine-protein kinase erbB-2 (Homo sapiens, UniProt P04626); test: Inhibition of ErbB2 by virtual HTS assay
[6] = target: Vascular endothelial growth factor receptor 3 (Homo sapiens, UniProt P35916)
Description: Inhibition of VEGFR3 by virtual HTS assay

Sequence of Insulin receptor (P06213 28-758 limits assumed): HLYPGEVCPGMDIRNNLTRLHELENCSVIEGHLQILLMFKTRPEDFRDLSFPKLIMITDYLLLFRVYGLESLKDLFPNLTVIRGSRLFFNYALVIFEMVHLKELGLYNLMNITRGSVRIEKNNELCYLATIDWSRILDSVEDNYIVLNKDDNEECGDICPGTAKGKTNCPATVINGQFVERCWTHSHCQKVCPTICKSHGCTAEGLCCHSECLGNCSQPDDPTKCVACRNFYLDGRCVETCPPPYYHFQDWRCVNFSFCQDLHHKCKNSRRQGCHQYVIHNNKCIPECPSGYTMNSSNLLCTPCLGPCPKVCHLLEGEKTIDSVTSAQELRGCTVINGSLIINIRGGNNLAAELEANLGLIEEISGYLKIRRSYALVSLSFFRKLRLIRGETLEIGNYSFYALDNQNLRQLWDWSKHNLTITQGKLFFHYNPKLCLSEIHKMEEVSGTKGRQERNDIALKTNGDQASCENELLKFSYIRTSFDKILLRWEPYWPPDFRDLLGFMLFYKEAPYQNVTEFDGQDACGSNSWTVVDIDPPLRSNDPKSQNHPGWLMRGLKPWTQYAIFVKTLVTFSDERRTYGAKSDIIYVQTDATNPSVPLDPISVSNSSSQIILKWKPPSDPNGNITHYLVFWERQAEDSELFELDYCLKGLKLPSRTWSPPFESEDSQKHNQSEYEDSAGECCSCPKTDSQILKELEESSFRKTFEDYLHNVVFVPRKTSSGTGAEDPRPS
Sequence of Insulin receptor (P06213 763-1382 limits assumed): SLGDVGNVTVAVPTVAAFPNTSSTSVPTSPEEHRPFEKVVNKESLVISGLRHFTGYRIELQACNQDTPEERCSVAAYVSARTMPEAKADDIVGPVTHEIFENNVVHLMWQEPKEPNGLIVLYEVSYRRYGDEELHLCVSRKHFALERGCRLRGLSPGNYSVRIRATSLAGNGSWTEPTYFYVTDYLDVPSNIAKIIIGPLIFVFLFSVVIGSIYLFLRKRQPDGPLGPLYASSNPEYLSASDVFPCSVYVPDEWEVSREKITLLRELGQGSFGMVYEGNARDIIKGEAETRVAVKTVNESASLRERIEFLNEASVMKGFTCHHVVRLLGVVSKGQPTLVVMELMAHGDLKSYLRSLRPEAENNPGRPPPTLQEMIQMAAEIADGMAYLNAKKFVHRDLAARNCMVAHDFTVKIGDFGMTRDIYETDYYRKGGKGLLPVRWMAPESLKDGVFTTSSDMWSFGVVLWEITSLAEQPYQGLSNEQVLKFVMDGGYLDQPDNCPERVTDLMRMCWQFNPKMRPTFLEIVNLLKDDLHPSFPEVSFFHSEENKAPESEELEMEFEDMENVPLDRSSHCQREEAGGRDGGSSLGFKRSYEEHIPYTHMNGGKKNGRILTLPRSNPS
Sequence of Insulin-like growth factor 1 receptor (P08069 31-736 limits assumed): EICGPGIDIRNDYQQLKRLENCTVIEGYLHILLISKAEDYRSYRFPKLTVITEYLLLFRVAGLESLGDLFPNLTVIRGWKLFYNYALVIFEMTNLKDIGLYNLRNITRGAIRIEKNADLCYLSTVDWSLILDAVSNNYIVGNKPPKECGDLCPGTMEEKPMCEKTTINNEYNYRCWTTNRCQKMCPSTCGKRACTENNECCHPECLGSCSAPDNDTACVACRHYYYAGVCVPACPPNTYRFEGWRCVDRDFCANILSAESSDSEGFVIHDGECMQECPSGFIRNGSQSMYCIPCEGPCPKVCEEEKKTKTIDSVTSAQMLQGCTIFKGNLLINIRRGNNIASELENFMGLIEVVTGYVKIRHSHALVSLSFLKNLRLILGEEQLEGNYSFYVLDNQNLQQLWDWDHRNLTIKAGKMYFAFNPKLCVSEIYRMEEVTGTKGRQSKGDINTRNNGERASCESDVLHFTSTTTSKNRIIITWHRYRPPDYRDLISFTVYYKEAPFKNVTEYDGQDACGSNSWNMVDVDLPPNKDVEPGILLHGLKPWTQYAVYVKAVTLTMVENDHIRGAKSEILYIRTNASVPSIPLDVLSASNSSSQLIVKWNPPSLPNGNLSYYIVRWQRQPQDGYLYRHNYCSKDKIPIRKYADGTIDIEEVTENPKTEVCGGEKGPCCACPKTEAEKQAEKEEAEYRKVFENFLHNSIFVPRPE
Sequence of Insulin-like growth factor 1 receptor (P08069 741-1367 limits assumed): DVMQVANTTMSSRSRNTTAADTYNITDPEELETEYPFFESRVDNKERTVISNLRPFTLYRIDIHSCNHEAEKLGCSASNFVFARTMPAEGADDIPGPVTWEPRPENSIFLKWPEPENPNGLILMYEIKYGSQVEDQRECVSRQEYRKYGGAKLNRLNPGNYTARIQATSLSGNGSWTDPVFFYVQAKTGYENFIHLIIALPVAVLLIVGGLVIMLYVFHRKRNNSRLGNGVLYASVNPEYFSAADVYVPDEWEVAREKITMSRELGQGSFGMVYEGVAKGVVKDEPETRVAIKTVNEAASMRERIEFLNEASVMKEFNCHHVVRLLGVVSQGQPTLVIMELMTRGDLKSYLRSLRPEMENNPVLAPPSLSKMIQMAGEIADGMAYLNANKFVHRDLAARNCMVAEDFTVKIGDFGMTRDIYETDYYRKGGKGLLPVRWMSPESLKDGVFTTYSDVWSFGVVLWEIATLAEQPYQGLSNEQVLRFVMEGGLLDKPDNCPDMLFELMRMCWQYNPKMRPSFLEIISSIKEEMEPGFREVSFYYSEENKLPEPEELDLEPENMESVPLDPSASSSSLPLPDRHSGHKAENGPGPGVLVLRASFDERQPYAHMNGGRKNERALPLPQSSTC
Sequence of Proto-oncogene tyrosine-protein kinase Src (P12931 2-536 limits assumed): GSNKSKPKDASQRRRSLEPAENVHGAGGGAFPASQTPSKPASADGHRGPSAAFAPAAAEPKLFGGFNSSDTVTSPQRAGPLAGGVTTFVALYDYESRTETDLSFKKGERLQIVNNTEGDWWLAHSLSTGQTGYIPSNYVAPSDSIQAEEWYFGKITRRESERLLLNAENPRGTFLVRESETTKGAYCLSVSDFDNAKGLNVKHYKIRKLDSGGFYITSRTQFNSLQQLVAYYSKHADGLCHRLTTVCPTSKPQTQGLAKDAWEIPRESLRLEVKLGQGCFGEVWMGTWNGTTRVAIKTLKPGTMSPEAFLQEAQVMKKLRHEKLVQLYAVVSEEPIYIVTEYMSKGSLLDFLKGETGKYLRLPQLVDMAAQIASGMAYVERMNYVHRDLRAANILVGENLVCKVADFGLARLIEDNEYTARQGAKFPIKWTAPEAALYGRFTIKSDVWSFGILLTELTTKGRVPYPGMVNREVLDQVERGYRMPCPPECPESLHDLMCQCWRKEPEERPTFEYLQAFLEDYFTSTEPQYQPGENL
Sequence of Vascular endothelial growth factor receptor 2 (P35968 whole entry): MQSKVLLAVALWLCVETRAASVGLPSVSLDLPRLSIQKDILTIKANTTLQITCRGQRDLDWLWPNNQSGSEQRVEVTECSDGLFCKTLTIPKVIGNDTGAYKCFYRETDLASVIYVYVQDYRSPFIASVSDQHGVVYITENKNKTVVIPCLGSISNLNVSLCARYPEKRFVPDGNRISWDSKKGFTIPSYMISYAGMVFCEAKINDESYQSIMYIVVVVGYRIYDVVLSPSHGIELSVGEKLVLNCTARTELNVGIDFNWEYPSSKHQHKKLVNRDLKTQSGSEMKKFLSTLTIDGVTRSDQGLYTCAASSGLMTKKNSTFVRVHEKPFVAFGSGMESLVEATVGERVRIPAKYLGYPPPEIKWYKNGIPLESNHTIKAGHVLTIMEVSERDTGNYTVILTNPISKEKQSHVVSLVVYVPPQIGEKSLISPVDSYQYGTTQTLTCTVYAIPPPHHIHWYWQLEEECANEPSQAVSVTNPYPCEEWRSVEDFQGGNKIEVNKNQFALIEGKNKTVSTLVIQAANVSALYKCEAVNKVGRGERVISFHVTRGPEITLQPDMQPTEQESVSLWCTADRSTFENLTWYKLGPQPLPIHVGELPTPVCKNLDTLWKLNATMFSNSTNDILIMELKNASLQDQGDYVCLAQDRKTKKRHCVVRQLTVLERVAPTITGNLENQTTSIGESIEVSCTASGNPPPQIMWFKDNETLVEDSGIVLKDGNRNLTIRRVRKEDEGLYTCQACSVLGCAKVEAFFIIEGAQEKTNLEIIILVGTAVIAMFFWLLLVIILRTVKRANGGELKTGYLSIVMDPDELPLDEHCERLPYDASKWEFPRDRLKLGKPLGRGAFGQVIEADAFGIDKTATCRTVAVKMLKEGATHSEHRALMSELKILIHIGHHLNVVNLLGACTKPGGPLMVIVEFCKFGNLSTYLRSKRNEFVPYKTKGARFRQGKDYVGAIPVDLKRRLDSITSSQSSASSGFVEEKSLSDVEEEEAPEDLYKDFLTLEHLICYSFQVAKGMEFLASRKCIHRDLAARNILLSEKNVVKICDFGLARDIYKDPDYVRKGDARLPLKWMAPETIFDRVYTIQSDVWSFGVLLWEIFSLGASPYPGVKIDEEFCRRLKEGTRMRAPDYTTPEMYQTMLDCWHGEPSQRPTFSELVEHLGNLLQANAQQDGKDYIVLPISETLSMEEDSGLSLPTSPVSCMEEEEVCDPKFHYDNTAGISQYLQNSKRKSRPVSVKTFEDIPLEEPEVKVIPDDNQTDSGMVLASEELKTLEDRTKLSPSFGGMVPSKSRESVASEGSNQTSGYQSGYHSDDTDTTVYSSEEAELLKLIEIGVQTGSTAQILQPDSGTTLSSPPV
Sequence of Aurora kinase B (Q96GD4 whole entry): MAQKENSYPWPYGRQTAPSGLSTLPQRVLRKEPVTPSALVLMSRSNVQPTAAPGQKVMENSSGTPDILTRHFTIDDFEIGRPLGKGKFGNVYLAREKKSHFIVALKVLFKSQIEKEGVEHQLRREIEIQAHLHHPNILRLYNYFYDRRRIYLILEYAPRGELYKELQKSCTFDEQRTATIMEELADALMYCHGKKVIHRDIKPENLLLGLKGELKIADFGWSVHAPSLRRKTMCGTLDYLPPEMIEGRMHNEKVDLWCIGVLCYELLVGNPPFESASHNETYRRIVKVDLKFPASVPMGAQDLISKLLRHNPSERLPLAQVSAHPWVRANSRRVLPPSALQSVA

Row | IC50 [1] [µM] | IC50 (Insulin receptor) [µM] | IC50 (Aurora kinase A) [µM] | IC50 (Aurora kinase B) [µM] | IC50 [2] [µM] | IC50 [3] [µM] | IC50 [4] [µM] | IC50 (Angiopoietin-1 receptor) [µM] | IC50 (Ephrin type-B receptor 4) [µM] | IC50 [5] [µM] | IC50 [6] [µM] | Structure (SMILES)
1 | > 10 | > 10 | 4 | 0.29 | > 10 | > 10 | > 10 | 4.1 |  | > 10 | > 10 | Fc1cc(-c2nc3ccccc3s2)ccc1Nc1ncnc2ccsc12
2 | > 10 | > 10 | 4.4 | 3.7 |  | > 10 | 3.4 | 0.84 | > 10 |  |  | COc1cc2ncnc(Nc3ccc(-c4nc5ccccc5s4)cc3C)c2cc1OC
3 | > 10 | > 10 | > 10 | > 10 | > 10 | > 10 | > 10 | > 10 |  | > 10 | > 10 | COc1cc(Nc2ncnc3ccsc23)ccc1-c1nc2ccccc2s1
4 | > 10 | > 10 | > 10 | 4.2 | 2.2 | > 10 | 6.9 |  | > 10 |  |  | COc1cc2ncnc(Nc3ccc(-c4nc5ccccc5s4)c(O)c3)c2cc1OC
5 | > 10 | > 10 | > 10 | > 10 | > 10 | > 10 | > 10 | 4.4 |  | > 10 | > 10 | Clc1cc(Nc2ncnc3ccsc23)ccc1-c1nc2ccccc2s1
6 |  | > 10 | 0.32 | 3.1 | > 10 |  | > 10 |  |  | > 10 | > 10 | COc1cc(Nc2nccc(Nc3cc(C)n[nH]3)n2)ccc1-c1nc2ccccc2s1
7 | > 10 | > 10 | 0.35 | 0.135 | 1.5 | > 10 | 6.8 |  | > 10 |  |  | COc1cc2ncnc(Nc3ccc(-c4nc5ccccc5s4)cc3)c2cc1OC
8 | > 10 | > 10 | 5.8 | > 10 | 2.6 | > 10 | 9.2 | 1.3 |  | > 10 | 3.4 | COc1cc(Nc2ncnc3nc[nH]c23)ccc1-c1nc2ccccc2s1
9 | 1.5 | 6.95 | 8 | > 10 | 1.3 | 1.5 | 1.2 | 1.9 |  | 3.1 | 2.1 | c1ccc2sc(-c3ccc(Nc4ncnc5[nH]ccc45)cc3)nc2c1
10 | 2.1 | > 10 | > 10 | > 10 | 5.1 | 2.9 | 0.96 | 2.5 |  | > 10 | 7.7 | COc1nc(Nc2ccc(-c3nc4ccccc4s3)c(OC)c2)c2cc[nH]c2n1
11 | > 10 | > 10 | 2.8 | 0.72 | > 10 | > 10 | > 10 | > 10 |  | > 10 | > 10 | c1ccc2sc(-c3ccc(Nc4ncnc5ccsc45)cc3)nc2c1
12 | > 10 |  | > 10 | 6.4 |  | > 10 | > 10 | 1.2 | > 10 |  |  | c1cc(Nc2ncnc3[nH]ccc23)cc(-c2nc3ccccc3s2)c1

More lines, now with the values behind:

Row | Structure (SMILES) | IC50 [1] [µM] | IC50 (Insulin receptor) [µM] | IC50 (Aurora kinase A) [µM] | IC50 (Aurora kinase B) [µM] | IC50 [2] [µM] | IC50 [3] [µM] | IC50 [4] [µM] | IC50 (Angiopoietin-1 receptor) [µM] | IC50 (Ephrin type-B receptor 4) [µM] | IC50 [5] [µM] | IC50 [6] [µM]
13 | COc1cc2nc(Nc3cc(C)n[nH]3)nc(Nc3ccc(-c4nc5ccccc5s4)cc3)c2cc1OC | 3 | 2.15 | 6 | > 10 | > 10 | 1.65 | > 10 | > 10 | 3.3 |  | 
14 | CNC(=O)c1cc(Nc2ccc(-c3nc4ccccc4s3)cc2)ccn1 |  | > 10 | > 10 | > 10 | 2 |  | 3.6 |  |  | 1.1 | > 10
15 | c1ccc2sc(-c3ccc(Nc4ncnc5nc[nH]c45)cc3)nc2c1 | > 10 | > 10 | > 10 | > 10 | 7.8 | > 10 | > 10 |  |  |  | 
16 | Cc1cc(Nc2ccnc(Nc3ccc(-c4nc5ccccc5s4)cc3)n2)n[nH]1 |  | > 10 | 0.37 | 7 | > 10 |  | > 10 |  |  |  | 
17 | c1cc(Nc2ncnc3nc[nH]c23)cc(-c2nc3ccccc3s2)c1 | 1.1 | > 10 | > 10 | > 10 | 1.7 | 1.2 | 0.87 |  | 0.84 |  | 
18 | CNc1cc(Nc2ccc(-c3nc4ccccc4s3)cc2)ccn1 |  | > 10 | > 10 | > 10 | > 10 |  | > 10 |  |  | > 10 | 6
19 | Clc1ccc2c(Nc3ccc(-c4nc5ccccc5s4)cc3)ccnc2c1 | 0.63 | 2.7 | 5.7 | 0.75 | 5.3 | 0.86 | 0.64 | 7 | 1.4 |  | 
20 | COc1cc2nc(Nc3cc(C)[nH]n3)nc(Nc3cccc(-c4nc5ccccc5s4)c3)c2cc1OC |  |  | 5.5 | > 10 |  |  |  | 4.4 |  |  | 
21 | CNc1ccnc(Nc2ccc(-c3nc4ccccc4s3)cc2)n1 |  |  | 1.5 |  |  |  |  |  |  |  | 
22 | COc1cc(Nc2ncnc3[nH]ccc23)ccc1-c1nc2ccccc2s1 | > 10 | > 10 | > 10 | > 10 | 0.72 | 3.6 | > 10 | 8.6 |  | 1.6 | > 10
23 | COc1nc(Nc2ccc(-c3nc4ccccc4s3)cc2)c2cc[nH]c2n1 | 6.4 | > 10 | > 10 | > 10 |  | 4.4 | 10 | 8.7 |  | > 10 | > 10
24 | Cc1cc(Nc2cc(Nc3ccc(-c4nc5ccccc5s4)cc3)ccn2)[nH]n1 |  | > 10 | 1.3 | 1.8 | > 10 |  | 8.8 |  |  | > 10 | 6.5
25 | CN(C)c1ccnc(Nc2ccc(-c3nc4ccccc4s3)cc2)n1 |  | > 10 | > 10 | > 10 | > 10 |  | > 10 |  |  |  | 
26 | COc1cc2ncnc(Nc3ccc(-c4nc5ccccc5s4)c(OC)c3)c2cc1OC | > 10 | > 10 | > 10 | > 10 | 0.063 | > 10 | > 10 |  | > 10 |  | 
27 | CN1CCN(c2ccnc(Nc3ccc(-c4nc5ccccc5s4)cc3)n2)CC1 |  | > 10 | 0.84 | > 10 | > 10 |  | > 10 |  |  | > 10 | 5.2
28 | CNc1nccc(Nc2ccc(-c3nc4ccccc4s3)cc2)n1 |  | 9.7 | > 10 | > 10 | > 10 |  | 8.9 |  |  | > 10 | 6.9
